Legend:
[1] = test system: human hair follicles in growth phase (anagen); test: Human hair follicle growth assay (hair follicle culture model); format: cell-based; conditions: follicle length day 6 minus day 0, statistically significant, read-out: hair growth inhibition compared to the control
Protocol: Human hair follicles in growth phase (anagen) were isolated from face-lift tissue (obtained from plastic surgeons). The skin was sliced into thin strips exposing 2-3 rows of follicles that could readily be dissected. Follicles were placed into William's E medium (Life Technologies, Gaithersburg, Md.) supplemented with 2 mM L-glutamine, 10 µg/ml insulin, 10 ng/ml hydrocortisone, and an antibiotic/antimicotic mixture as described in Philpott et al. (1990) J. Cell Sci. 97 (Pt3):463-71. The follicles were incubated in 24-well plates (1 follicle/well) at 37° C. in an atmosphere of 5% CO2 and 100% humidity for different periods of time (Philpott et al. (1990) supra). The length of hair follicle was assessed using an image analysis software system. To determine the effect of molecules modulating TRPM8/TRPA1 activity on hair growth, hair follicles were incubated with icilin (Tocris Bioscience) and L-Menthol, L-menthyl lactate (Sigma). Hair follicle images were taken in the 24-well plates under the dissecting scope under a power of 20×. Hair follicle length was measured on day 0 (day follicles were placed in culture) and again on day 6. The growth of hair fiber was calculated by the subtracting the follicle length on day 0 from that determined on day 6. To identify whether modulation of TRPM8 and TRPA1 activity could affect hair growth, their agonists were tested in the hair follicle culture model. Hair follicle treatment with 10 uM of menthol, icilin, and menthyl lactate, caused statistically significant hair growth inhibition by 40%, 45% and 60% respectively, compared to the control. […] Thus, activation of either TRPM8 or TRPA1 by a cooling agent leads to a significant reduction of hair growth rate in vitro.

[2] = test system: Ki-67 immunoreactivity in the hair matrix and outer root sheath; test: Ki-67 immunofluorescence for proliferating cells in cultured hair follicles; format: cell-based, human; conditions: hair follicle treatment, concentration-dependent
Protocol: For detection of proliferating cells the indirect immunofluorescence protocol using rabbit monoclonal antibody against Ki-67. Eight […]m hair follicle sections were fixed in formalin and postfixed in ethanol/acetic acid. […] Counterstaining was performed using HOECHST 33342 dye ([…] in PBS; 10 minutes). Each phase was interspersed by a washing step (three times) in PBS. Finally, sections were mounted using VectaShield Vector Laboratories). All sections were examined under a Olympus BX 60 fluorescent microscope and photodocumented with the help of a digital image analysis system (CoolSnap™ cooled CCD camera, Alpha Innotech) To identify whether modulation of TRPM8 and TRPA1 activity could affect hair growth, their agonists were tested in the hair follicle culture model. Hair follicle treatment with 10 uM of menthol, icilin, and menthyl lactate, caused statistically significant hair growth inhibition by 40%, 45% and 60% respectively, compared to the control. […] Thus, activation of either TRPM8 or TRPA1 by a cooling agent leads to a significant reduction of hair growth rate in vitro.

[3] = test system: tyrosinase expression in hair follicles; test: Tyrosinase immunohistochemistry in treated hair follicles; format: cell-based, human; conditions: 10 uM
Protocol: For the immunodetection of melanogenic proteins, sections were incubated with either mouse monoclonal antibody against human tyrosinase or chicken monoclonal antibody against human p-mel 17 (Neomarker and Zymed, respectively; 1:100, overnight), followed by incubation with TRITC-labeled […] (Jackson ImmunoResearch; 45 min, 37° C.) and FITC-labeled goat anti-chicken IgG, respectively. Next, sections were counterstained with Hoechst 33342 (1:300, 15 min) for identification of cell nuclei, and mounted using VectaShield (Vector Laboratories). All sections were examined under a Olympus BX 60 fluorescent microscope and photodocumented with the help of a digital image analysis system (CoolSnap™ cooled CCD camera, Alpha Innotech) To determine whether a TRPM8 and TRPA1 agonist can affect pigment producing activity of the melanocytes, expression of tyrosinase was analyzed in the hair follicles treated with 10 uM icilin by immunohistochemistry. Tyrosinase expression was decreased in treated hair follicles, compared to the control. In addition, the effects of icilin on melanogenic protein expression were tested in human epidermal melanocytes culture. A decrease in tyrosinase and tyrosinase-related protein (TRP)-1 expression levels were observed 48 hours after 10 uM icilin treatment, compared to the control, as determined by Western blot analysis. […]

[4] = test system: human epidermal melanocytes; test: Western blot of melanogenic proteins in human epidermal melanocytes culture; format: cell-based; conditions: 10 uM, 48 hours
Protocol: Total cellular proteins of human melanocytes were harvested in a lysis buffer (Total protein extraction kit; CHEMICON International, Inc). Twenty […]g protein were loaded per lane, separated by 10% sodium dodecyl sulfate polyacrylamide gel electrophoresis, and transferred to nitrocellulose membrane at 100 V for 1 h. Following overnight blocking with 5% nonfat dry milk/bovine serum albumin (BSA) in Tris-phosphate-buffered saline (PBS) (0.5% Tween-20 in PBS) at 4° C., the membrane was incubated overnight with a monoclonal antibody against either tyrosinase or tyrosinase-related protein-1 or actin at a dilution of 1:1000. […] After extensive washing the membrane was incubated for 1 min with the enzyme-linked chemiluminescence Western Blotting Detection Reagent (Amersham, Buckinghamshire, U.K.), and bands were detected on preflashed Kodak X-Omat film and developed after several seconds of exposure.
To determine whether a TRPM8 and TRPA1 agonist can affect pigment producing activity of the melanocytes, expression of tyrosinase was analyzed in the hair follicles treated with 10 uM icilin by immunohistochemistry. […] A decrease in tyrosinase and tyrosinase-related protein (TRP)-1 expression levels were observed 48 hours after 10 uM icilin treatment, compared to the control, as determined by Western blot analysis. […]

O=C1NC(c2cccc([N+](=O)[O-])c2)=CCN1c1ccccc1O [icilin, 1-(2-Hydroxyphenyl)-4-(3-nitrophenyl)-1,2,3,6-tetrahydropyrimidin-2-one]
inhibition at 10 µM [1]: 45% | cell proliferation (Ki-67 immunoreactivity in hair matrix and outer root sheath) [2]: inhibition of cell proliferation in a concentration-dependent manner | tyrosinase expression in treated hair follicles compared to the control [3]: decreased | tyrosinase expression level compared to the control [4]: decrease | tyrosinase-related protein (TRP)-1 expression level compared to the control [4]: decrease

CC1CCC(C(C)C)C(O)C1 (stereo not shown) [menthol]
inhibition at 10 µM [1]: 40%

CC1CCC(C(C)C)C(OC(=O)C(C)O)C1 (stereo not shown) [menthyl lactate]
inhibition at 10 µM [1]: 60%
